Source: patent US11673889B2, “Substituted imidazo[4,5-c][1,8]naphthyridines as phosphodiesterase inhibitors” (Nanjing Zhengxiang Pharmaceuticals Co., Ltd., priority 2019, dated 2023)

Experiments:
[1] = target: T1, human soluble ENPP1 (Homo sapiens, UniProt P22413); assay: ENPP1 activity assay using p-Nitrophenyl-5′-TMP as a substrate; type: biochemical
T1 construct: 20 ng of human soluble ENPP1
T1 sequence (P22413 103-925 limits assumed): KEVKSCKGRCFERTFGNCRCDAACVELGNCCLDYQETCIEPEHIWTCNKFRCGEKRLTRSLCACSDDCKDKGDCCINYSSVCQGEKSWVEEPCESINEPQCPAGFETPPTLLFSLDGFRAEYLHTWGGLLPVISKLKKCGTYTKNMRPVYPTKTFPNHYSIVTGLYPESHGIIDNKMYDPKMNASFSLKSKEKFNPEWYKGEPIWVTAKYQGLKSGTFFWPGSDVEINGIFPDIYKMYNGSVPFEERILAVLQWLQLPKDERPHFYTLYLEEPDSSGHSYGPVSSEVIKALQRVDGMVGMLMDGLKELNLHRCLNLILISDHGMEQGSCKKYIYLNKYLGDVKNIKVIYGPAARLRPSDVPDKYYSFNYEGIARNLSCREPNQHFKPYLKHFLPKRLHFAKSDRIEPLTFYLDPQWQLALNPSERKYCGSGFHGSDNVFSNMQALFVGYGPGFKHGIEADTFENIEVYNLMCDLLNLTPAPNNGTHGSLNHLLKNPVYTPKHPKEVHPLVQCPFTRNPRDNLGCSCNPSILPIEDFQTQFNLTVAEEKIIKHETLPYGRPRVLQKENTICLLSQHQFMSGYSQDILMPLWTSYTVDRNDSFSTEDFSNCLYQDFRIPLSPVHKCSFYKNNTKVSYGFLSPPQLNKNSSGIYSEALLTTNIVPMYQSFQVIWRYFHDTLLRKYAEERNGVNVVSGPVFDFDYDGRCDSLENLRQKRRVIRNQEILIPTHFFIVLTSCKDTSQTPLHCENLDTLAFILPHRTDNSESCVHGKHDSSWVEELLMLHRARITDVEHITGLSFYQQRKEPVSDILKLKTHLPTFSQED
In short: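 Human soluble ENPP1 (20 ng) was preincubated with inhibitor for 30 min at room temperature. TMP-pNP was then added as a 2 mM […] solution and incubated 1 h at RT, with p-nitrophenol formation read by OD. IC50 came from four-parameter fits of % inhibition relative to no-inhibitor and blank controls.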

[2] = target: T1, human soluble ENPP1; assay: ENPP1 activity assay using p-Nitrophenyl-5′-AMP as a substrate; type: biochemical
In short: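 Human soluble ENPP1 (35 ng) preincubated with inhibitor 30 min at RT, then p-nitrophenyl-5′-AMP added (3 mM solution, 2× final) and incubated 1 h at RT. p-Nitrophenolate release read at OD 405 nm; % inhibition vs no-inhibitor and blank controls, IC50 from four-parameter fit.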

[3] = Pharmacokinetics in mice; type: in vivo; settings: mouse, plasma, male CD-1 mice, 1 mg/kg, iv; for Vd: read-out: Vdss
Experimental: A dosing solution of test sample was prepared at 1.0 mg/mL in 5% DMSO/40% PEG400/55% water and administered to male CD-1 mice (4-6 weeks old, 20-30 grams, 3 animals each group) via intravenous (IV) bolus at 1 mg/kg and by oral gavage (PO) at 5 mg/kg. Blood samples (˜0.03 mL each time point) were collected via the jugular vein into tubes containing sodium heparin as the anticoagulant at 0.033, 0.083, 0.25, 0.5, 1, 2, 4, 8 and 24 hours post dose for IV administration and 0.083, 0.25, 0.5, 1, 2, 4, 8 and 24 hours post dose for PO administration. The blood samples were then centrifuged for 5 minutes in a centrifuge refrigerated at 4° C. The resultant plasma samples were analyzed using LC/MS/MS to determine concentrations of test sample. Non-compartmental model with WinNonlin (Phoenix™, version 8.0) software was used to calculate pharmacokinetic (PK) parameters.

[4] = target: T2, ENPP-1, MDA-MB-231 cells (Homo sapiens, UniProt P22413); assay: cell-based; settings: for inhibition at 20 µM: MDA-MB-231, read-out: % Inhibition (at 20 μM)
T2 sequence (P22413 1-925): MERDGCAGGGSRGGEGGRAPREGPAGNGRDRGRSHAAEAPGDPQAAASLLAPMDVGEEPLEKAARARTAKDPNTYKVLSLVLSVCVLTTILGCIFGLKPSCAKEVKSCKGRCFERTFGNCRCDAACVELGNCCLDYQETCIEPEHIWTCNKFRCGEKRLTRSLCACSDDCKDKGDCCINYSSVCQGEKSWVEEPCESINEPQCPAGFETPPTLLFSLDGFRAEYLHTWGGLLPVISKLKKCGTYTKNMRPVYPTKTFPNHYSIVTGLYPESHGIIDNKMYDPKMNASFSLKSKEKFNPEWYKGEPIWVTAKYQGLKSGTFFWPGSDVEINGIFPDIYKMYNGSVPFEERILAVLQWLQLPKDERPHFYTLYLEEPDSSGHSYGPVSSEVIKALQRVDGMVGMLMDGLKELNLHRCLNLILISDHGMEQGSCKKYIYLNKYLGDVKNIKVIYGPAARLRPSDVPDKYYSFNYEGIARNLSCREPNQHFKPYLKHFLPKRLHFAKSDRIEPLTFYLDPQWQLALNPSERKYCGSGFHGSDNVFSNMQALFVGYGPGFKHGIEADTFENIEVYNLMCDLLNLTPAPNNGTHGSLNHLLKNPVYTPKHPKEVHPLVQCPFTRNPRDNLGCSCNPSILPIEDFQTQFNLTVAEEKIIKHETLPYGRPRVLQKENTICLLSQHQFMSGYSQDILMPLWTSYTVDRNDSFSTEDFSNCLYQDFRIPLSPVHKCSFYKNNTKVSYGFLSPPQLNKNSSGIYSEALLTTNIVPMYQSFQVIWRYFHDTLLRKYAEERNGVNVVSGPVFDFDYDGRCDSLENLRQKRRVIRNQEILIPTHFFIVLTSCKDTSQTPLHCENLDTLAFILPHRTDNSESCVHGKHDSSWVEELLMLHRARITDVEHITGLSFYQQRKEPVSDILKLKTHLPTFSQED

[5] = substrate TMP-pNP, 20 ng human soluble ENPP1, Tris buffer pH 9.5, read-out: TMP-pNP (IC50)

| IC50 [1] | IC50 [2] | AUC [3] | clearance [3] | half-life [3] | Vd [3] | IC50 [4] | inhibition at 20 µM [4] | IC50 [1, 5] | Compound |
| --- | --- | --- | --- | --- | --- | --- | --- | --- | --- |
| 0.66 nM | 1.4 nM | – | – | – | – | 80 nM | 88% | – | COc1ccc2c(ncc3cnn(Cc4ccc(S(N)(=O)=O)cn4)c32)n1 [Compound 135a, 6-((7-methoxy-1H-pyrazolo[4,3-c][1,8]naphthyridin-1-yl)methyl)pyridine-3-sulfonamide] |
| 8.1 nM | 34 nM | – | – | – | – | 16000 nM | 16% | – | COc1ccc2c(ncc3ccn(Cc4ccc(S(N)(=O)=O)cc4)c32)n1 [Compound 117, 4-((7-methoxy-1H-pyrrolo[3,2-c][1,8]naphthyridin-1-yl)methyl)benzenesulfonamide] |
| 0.67 nM | 1.1 nM | – | – | – | – | 2400 nM | 76% | – | COc1ccc2c(ncc3[nH]c(=O)n([C@H](C)c4ccc(S(N)(=O)=O)cc4)c32)n1 [Compound 101, (R)-4-(1-(7-methoxy-2-oxo-2,3-dihydro-1H-imidazo[4,5-c][1,8]naphthyridin-1-yl)ethyl)benzenesulfonamide] |
| – | 21 nM | – | – | – | – | 0.31 nM | 80% | 7.4 nM | COc1ccc2c(ncc3[nH]c(=O)n(Cc4c(F)cc(B(O)O)cc4F)c32)n1 [Compound 111, (3,5-difluoro-4-((7-methoxy-2-oxo-2,3-dihydro-1H-imidazo[4,5-c][1,8]naphthyridin-1-yl)methyl)phenyl)boronic acid] |
| 0.56 nM | 1.1 nM | – | – | – | – | 810 nM | 78% | – | COc1ccc2c(ncc3[nH]c(=O)n(CC4CC(OS(N)(=O)=O)C4)c32)n1 (stereo not shown) [Compound 97, 3-((7-methoxy-2-oxo-2,3-dihydro-1H-imidazo[4,5-c][1,8]naphthyridin-1-yl)methyl)cyclobutyl sulfamate] |
| 16 nM | 66 nM | – | – | – | – | 5700 nM | 64% | – | COc1ccc2c(ncc3[nH]c(=O)n(Cc4c(F)cc(C(=O)O)cc4F)c32)n1 [Compound 108, 3,5-difluoro-4-((7-methoxy-2-oxo-2,3-dihydro-1H-imidazo[4,5-c][1,8]naphthyridin-1-yl)methyl)benzoic acid] |
| – | 0.32 nM | – | – | – | – | 56 nM | 78% | 0.11 nM | COc1ccc2c(ncc3c2n(Cc2c(F)cc(S(N)(=O)=O)cc2F)c(=O)n3CCO)n1 [Compound 115, 3,5-difluoro-4-((3-(2-hydroxyethyl)-7-methoxy-2-oxo-2,3-dihydro-1H-imidazo[4,5-c][1,8]naphthyridin-1-yl)methyl)benzenesulfonamide] |

More lines, now with the values behind:

| Compound | IC50 [1] | IC50 [2] | AUC [3] | clearance [3] | half-life [3] | Vd [3] | IC50 [4] | inhibition at 20 µM [4] | IC50 [1, 5] |
| --- | --- | --- | --- | --- | --- | --- | --- | --- | --- |
| COc1ccc2c(ncc3[nH]c(=O)n(Cc4ccc(S(N)(=O)=O)cc4)c32)n1 [Compound 38, 4-((7-methoxy-2-oxo-2,3-dihydro-1H-imidazo[4,5-c][1,8]naphthyridin-1-yl)methyl)benzenesulfonamide] | 0.31 nM | 0.75 nM | 370 ng·h/mL | 45 mL/min/kg | 1.9 h | 3.3 L/kg | – | – | – |
| COc1ccc2c(ncc3nc(C)n(Cc4ccc(S(N)(=O)=O)nc4)c32)n1 [Compound 73, 5-((7-methoxy-2-methyl-1H-imidazo[4,5-c][1,8]naphthyridin-1-yl)methyl)pyridine-2-sulfonamide] | 0.36 nM | 0.96 nM | 267 ng·h/mL | 63 mL/min/kg | 0.6 h | 1.6 L/kg | 270 nM | 81% | – |
| COc1ccc2c(ncc3nc(C)n(Cc4ccc(S(=O)(=O)NC(C)=O)c(F)c4)c32)n1 [Compound 76, N-((2-fluoro-4-((7-methoxy-2-methyl-1H-imidazo[4,5-c][1,8]naphthyridin-1-yl)methyl)phenyl)sulfonyl)acetamide] | – | 26 nM | – | – | – | – | 6900 nM | 51% | 13 nM |
| COc1ccc2c(n1)nc(C)c1nc(C)n(Cc3ncc(S(N)(=O)=O)cn3)c12 [Compound 91a, 2-((7-methoxy-2,4-dimethyl-1H-imidazo[4,5-c][1,8]naphthyridin-1-yl)methyl)pyrimidine-5-sulfonamide] | – | 323 nM | – | – | – | – | > 6700 nM | 53% | 83 nM |
| COc1ccc2c(ncc3ncn(Cc4ccc(S(N)(=O)=O)c(OC(F)(F)F)c4)c32)n1 [Compound 66, 4-((7-methoxy-1H-imidazo[4,5-c][1,8]naphthyridin-1-yl)methyl)-2-(trifluoromethoxy)benzenesulfonamide] | 3 nM | 13 nM | – | – | – | – | 3400 nM | 71% | – |
| COc1ccc2c(ncc3ncn(Cc4ccc(S(N)(=O)=O)c(OC)c4)c32)n1 [Compound 64, 2-methoxy-4-((7-methoxy-1H-imidazo[4,5-c][1,8]naphthyridin-1-yl)methyl)benzenesulfonamide] | 2.8 nM | 8.9 nM | – | – | – | – | 4700 nM | 68% | – |
| COCCc1nc2c(C)nc3nc(OC)ccc3c2n1Cc1cc(F)c(S(N)(=O)=O)cc1F [Compound 93, 2,5-difluoro-4-((7-methoxy-2-(2-methoxyethyl)-4-methyl-1H-imidazo[4,5-c][1,8]naphthyridin-1-yl)methyl)benzenesulfonamide] | 3.7 nM | 13 nM | – | – | – | – | 2200 nM | 74% | – |
| COc1ccc2c(n1)nc(C)c1nc(CN(C)C)n(Cc3cc(F)c(S(N)(=O)=O)cc3F)c12 [Compound 92, 4-((2-((dimethylamino)methyl)-7-methoxy-4-methyl-1H-imidazo[4,5-c][1,8]naphthyridin-1-yl)methyl)-2,5-difluorobenzenesulfonamide] | 9.3 nM | 29 nM | – | – | – | – | 4100 nM | 68% | – |
| COc1ccc2c(n1)nc(C)c1ncn(Cc3ccc(S(N)(=O)=O)cn3)c12 [Compound 87, 6-((7-methoxy-4-methyl-1H-imidazo[4,5-c][1,8]naphthyridin-1-yl)methyl)pyridine-3-sulfonamide] | 1.3 nM | 4 nM | – | – | – | – | 360 nM | 85% | – |
